{"source": "patent US5593964A", "about": "“Method of treating septic shock by preventing actin polymerization” (The George Washington University Medical Center, priority 1994, dated 1997)", "key": {"[1]": {"system": "PAF", "assay": "PAF blood levels (plasma, serum) after lethal endotoxin dose", "assay_type": "in vivo, Swiss-Webster mice", "details": "after a lethal dose of endotoxin", "text": "(§1) Using the same methods and materials as in examples 1-3, the effect which Tβ4 has on blood levels of IL-1α, TNF-α, PAG, Txβ2 and 6-keto-PGF1 α, which are pathological mediators of endotoxin induced lethality, was studied."}, "[2]": {"system": "Txβ2", "assay": "Txβ2 plasma levels after lethal endotoxin dose", "assay_type": "in vivo, Swiss-Webster mice", "text": "as §1"}, "[3]": {"system": "IL-1α", "assay": "IL-1α serum levels after lethal endotoxin dose", "assay_type": "in vivo, Swiss-Webster mice", "text": "as §1"}, "[4]": {"system": "TNF-α", "assay": "TNF-α serum levels after lethal endotoxin dose", "assay_type": "in vivo, Swiss-Webster mice", "text": "as §1"}, "[5]": {"system": "6-keto-PGF1α", "assay": "6-keto-PGF1α plasma levels after lethal endotoxin dose", "assay_type": "in vivo, Swiss-Webster mice", "details": "after a lethal dose of endotoxin", "text": "as §1"}, "[6]": {"system": "lethal endotoxin shock", "assay": "Survival of Swiss Webster mice following lethal endotoxin dose and Tβ4", "assay_type": "in vivo", "protocol": "Swiss-Webster mice 4-6 weeks of age (20-25g) were housed 6 per cage. The mice were divided into 2 groups: endotoxic mice (endotoxin 60 mg/kg i.p. in acute treatment) and endotoxic mice treated with Tβ4, 5 minutes and 2, 4, 6, 8, 10, 12, 14, 16, 18, 20, 22, 24 hours post administration of the endotoxin. Survival was recorded 2 times a day for 7 days.\nSwiss-Webster mice 4-6 weeks of age (20-25g) were divided to the following 4 groups.\n1. Mice treated with a lethal dose of endotoxin (60 mg/kg).\n2. Mice treated with 60 mg/kg endotoxin followed by an injection of 100 μg Tβ4 (5 minutes post administration of endotoxin).\n3. Mice treated with 60 mg/kg endotoxin followed by 2 injections of 100 μg/Tβ4 (immediately following and 2 hours post administration of endotoxin).\n4. […]"}, "[7]": {"details": "after a lethal dose of endotoxin"}, "[8]": {"details": "endotoxin 60 mg/kg + Tβ4 100 μg administered simultaneously, 1 hr"}, "[9]": {"details": "endotoxin 60 mg/kg + Tβ4 100 μg administered simultaneously, 3 hr"}}}
{"substance": "Thymosin β4 [Tβ4]", "values": [{"measurement": "PAF plasma levels", "setting": "[1]", "result": "decreased"}, {"measurement": "Txβ2 (plasma levels)", "setting": "[2]; [7]", "result": "decreased"}, {"measurement": "Txβ2 (plasma levels)", "setting": "[2]; endotoxin 60 mg/kg + Tβ4 100 μg administered simultaneously, 0.5 hr", "result": "209 ± 9,5 pg/ml"}, {"measurement": "Txβ2 (plasma levels)", "setting": "[2]; [8]", "result": "607 ± 53", "unit": "pg/mL"}, {"measurement": "Txβ2 (plasma levels)", "setting": "[2]; endotoxin 60 mg/kg + Tβ4 100 μg administered simultaneously, 2 hr", "result": "196 ± 18", "unit": "pg/mL"}, {"measurement": "Txβ2 (plasma levels)", "setting": "[2]; [9]", "result": "112 ± 9", "unit": "pg/mL"}, {"measurement": "IL-1α (serum levels)", "setting": "[3]; [7]", "result": "decreased"}, {"measurement": "IL-1α (serum levels)", "setting": "[3]; [8]", "result": "147,5 ± 15,1 pg/ml"}, {"measurement": "IL-1α (serum levels)", "setting": "[3]; [9]", "result": "207,5 ± 19,3 pg/ml"}, {"measurement": "TNF-α (serum levels)", "setting": "[4]; [7]", "result": "decreased"}, {"measurement": "TNF-α (serum levels)", "setting": "[4]; endotoxin 60 mg/kg + Tβ4 100 μg administered immediately after endotoxin, 1 hr", "result": 807, "unit": "pg/mL"}, {"measurement": "TNF-α (serum levels)", "setting": "[4]; endotoxin 60 mg/kg + Tβ4 100 μg administered immediately after endotoxin, 3 hr", "result": 591, "unit": "pg/mL"}, {"measurement": "TNF-α (serum levels)", "setting": "[4]; endotoxin 60 mg/kg + Tβ4 100 μg administered immediately after endotoxin, 5 hr", "result": 496, "unit": "pg/mL"}, {"measurement": "6-keto-PGF1 α plasma levels", "setting": "[5]", "result": "decreased"}, {"measurement": "activity on endotoxin lethality", "setting": "[6]; 10 μg Tβ4", "result": "sometimes shown positive activity"}, {"measurement": "protection against lethal endotoxin shock", "setting": "[6]; Example 1, endotoxin 60 mg/kg i.p.", "result": "protected against lethal endotoxin shock"}, {"measurement": "survival rate", "setting": "[6]; Example 1, endotoxin 60 mg/kg i.p., Tβ4 5 minutes and 2 to 24 hours post endotoxin, survival recorded for 7 days", "result": "≤ 100", "unit": "%"}, {"measurement": "survival rate", "setting": "[6]; Example 2, endotoxin 60 mg/kg, Tβ4 administered 3 times post endotoxin", "result": 100, "unit": "%"}, {"measurement": "Survival (No. mice alive)", "setting": "[6]; Table I, endotoxin 60 mg/kg + Tβ4 100 μg 1x (5 min post endotoxin), 24 hrs, 7 mice at 0 hrs", "result": 4}, {"measurement": "Survival (No. mice alive)", "setting": "[6]; Table I, endotoxin 60 mg/kg + Tβ4 100 μg 2x (immediately and 2 hours post endotoxin), 24 hrs, 7 mice at 0 hrs", "result": 4}, {"measurement": "Survival (No. mice alive)", "setting": "[6]; Table I, endotoxin 60 mg/kg + Tβ4 100 μg 3x (immediately, 2 and 4 hours post endotoxin), 24 hrs, 7 mice at 0 hrs", "result": 7}, {"measurement": "Survival (No. mice alive)", "setting": "[6]; Table II, Tβ4 10 μg 3x immediately following, 2 and 4 hrs after endotoxin, 48 hrs, 8 mice at 0 hrs", "result": 6}, {"measurement": "Survival (No. mice alive)", "setting": "[6]; Table II, Tβ4 10 μg 3x immediately following, 2 and 4 hrs after endotoxin, 72 hrs, 8 mice at 0 hrs", "result": 6}, {"measurement": "Survival (No. mice alive)", "setting": "[6]; Table II, Tβ4 10 μg 3x immediately following, 2 and 4 hrs after endotoxin, 96 hrs, 8 mice at 0 hrs", "result": 6}, {"measurement": "Survival (No. mice alive)", "setting": "[6]; Table II, Tβ4 10 μg 3x immediately following, 2 and 4 hrs after endotoxin, 120 hrs, 8 mice at 0 hrs", "result": 6}, {"measurement": "Survival (No. mice alive)", "setting": "[6]; Table II, Tβ4 100 μg 3x at 2, 4 and 6 hrs after endotoxin, 48 hrs, 8 mice at 0 hrs", "result": 4}, {"measurement": "Survival (No. mice alive)", "setting": "[6]; Table II, Tβ4 100 μg 3x at 2, 4 and 6 hrs after endotoxin, 72 hrs, 8 mice at 0 hrs", "result": 4}, {"measurement": "Survival (No. mice alive)", "setting": "[6]; Table II, Tβ4 100 μg 3x at 2, 4 and 6 hrs after endotoxin, 96 hrs, 8 mice at 0 hrs", "result": 4}, {"measurement": "Survival (No. mice alive)", "setting": "[6]; Table II, Tβ4 100 μg 3x at 2, 4 and 6 hrs after endotoxin, 120 hrs, 8 mice at 0 hrs", "result": 4}, {"measurement": "Survival (No. mice alive)", "setting": "[6]; Table II, Tβ4 100 μg 3x immediately following, 2 and 4 hrs after endotoxin, 48 hrs, 8 mice at 0 hrs", "result": 8}, {"measurement": "Survival (No. mice alive)", "setting": "[6]; Table II, Tβ4 100 μg 3x immediately following, 2 and 4 hrs after endotoxin, 72 hrs, 8 mice at 0 hrs", "result": 8}, {"measurement": "Survival (No. mice alive)", "setting": "[6]; Table II, Tβ4 100 μg 3x immediately following, 2 and 4 hrs after endotoxin, 96 hrs, 8 mice at 0 hrs", "result": 8}, {"measurement": "Survival (No. mice alive)", "setting": "[6]; Table II, Tβ4 100 μg 3x immediately following, 2 and 4 hrs after endotoxin, 120 hrs, 8 mice at 0 hrs", "result": 8}, {"measurement": "Survival (No. mice alive)", "setting": "[6]; Table II, endotoxin 60 mg/kg + Tβ4 10 μg 3x immediately following, 2 and 4 hrs after endotoxin, 24 hrs, 8 mice at 0 hrs", "result": 8}, {"measurement": "Survival (No. mice alive)", "setting": "[6]; Table II, endotoxin 60 mg/kg + Tβ4 100 μg 3x at 2, 4 and 6 hrs after endotoxin, 24 hrs, 8 mice at 0 hrs", "result": 7}, {"measurement": "Survival (No. mice alive)", "setting": "[6]; Table II, endotoxin 60 mg/kg + Tβ4 100 μg 3x immediately following, 2 and 4 hrs after endotoxin, 24 hrs, 8 mice at 0 hrs", "result": 8}, {"measurement": "Survival (No. mice alive)", "setting": "[6]; Table III, Tβ4 10 μg 3x i.p., 48 hrs, 10 mice at 0 hrs", "result": 3}, {"measurement": "Survival (No. mice alive)", "setting": "[6]; Table III, Tβ4 10 μg 3x i.p., 72 hrs, 10 mice at 0 hrs", "result": 3}, {"measurement": "Survival (No. mice alive)", "setting": "[6]; Table III, Tβ4 10 μg 3x i.p., 96 hrs, 10 mice at 0 hrs", "result": 3}, {"measurement": "Survival (No. mice alive)", "setting": "[6]; Table III, Tβ4 10 μg 3x i.p., 5 days, 10 mice at 0 hrs", "result": 3}, {"measurement": "Survival (No. mice alive)", "setting": "[6]; Table III, Tβ4 10 μg 3x i.p., 6 days, 10 mice at 0 hrs", "result": 3}, {"measurement": "Survival (No. mice alive)", "setting": "[6]; Table III, Tβ4 20 μg 3x i.p., 48 hrs, 10 mice at 0 hrs", "result": 4}, {"measurement": "Survival (No. mice alive)", "setting": "[6]; Table III, Tβ4 20 μg 3x i.p., 72 hrs, 10 mice at 0 hrs", "result": 4}, {"measurement": "Survival (No. mice alive)", "setting": "[6]; Table III, Tβ4 20 μg 3x i.p., 96 hrs, 10 mice at 0 hrs", "result": 3}, {"measurement": "Survival (No. mice alive)", "setting": "[6]; Table III, Tβ4 20 μg 3x i.p., 5 days, 10 mice at 0 hrs", "result": 3}, {"measurement": "Survival (No. mice alive)", "setting": "[6]; Table III, Tβ4 20 μg 3x i.p., 6 days, 10 mice at 0 hrs", "result": 3}, {"measurement": "Survival (No. mice alive)", "setting": "[6]; Table III, Tβ4 50 μg 3x i.p., 48 hrs, 10 mice at 0 hrs", "result": 7}, {"measurement": "Survival (No. mice alive)", "setting": "[6]; Table III, Tβ4 50 μg 3x i.p., 72 hrs, 10 mice at 0 hrs", "result": 7}, {"measurement": "Survival (No. mice alive)", "setting": "[6]; Table III, Tβ4 50 μg 3x i.p., 96 hrs, 10 mice at 0 hrs", "result": 7}, {"measurement": "Survival (No. mice alive)", "setting": "[6]; Table III, Tβ4 50 μg 3x i.p., 5 days, 10 mice at 0 hrs", "result": 7}, {"measurement": "Survival (No. mice alive)", "setting": "[6]; Table III, Tβ4 50 μg 3x i.p., 6 days, 10 mice at 0 hrs", "result": 7}, {"measurement": "Survival (No. mice alive)", "setting": "[6]; Table III, endotoxin 60 mg/kg + Tβ4 10 μg 3x i.p. immediately following, 2 and 4 hrs after endotoxin, 24 hrs, 10 mice at 0 hrs", "result": 3}, {"measurement": "Survival (No. mice alive)", "setting": "[6]; Table III, endotoxin 60 mg/kg + Tβ4 20 μg 3x i.p. immediately following, 2 and 4 hrs after endotoxin, 24 hrs, 10 mice at 0 hrs", "result": 5}, {"measurement": "Survival (No. mice alive)", "setting": "[6]; Table III, endotoxin 60 mg/kg + Tβ4 50 μg 3x i.p. immediately following, 2 and 4 hrs after endotoxin, 24 hrs, 10 mice at 0 hrs", "result": 9}, {"measurement": "survival of mice treated with endotoxin", "setting": "[6]; Tβ4 20 μg administered three times", "result": "partially increased the survival"}, {"measurement": "survival of mice treated with endotoxin", "setting": "[6]; Tβ4 50 μg administered three times", "result": "partially increased the survival"}, {"measurement": "effect on endotoxin toxicity", "setting": "[6]; Tβ4 given immediately following, 2 and 4 hours after endotoxin treatment", "result": "protective effect"}]}
